# Measurements reported in patent publication US12077503B2, “Substituted cyclic amides and their use as herbicides” (FMC CORPORATION, priority 2015, dated 2024).
# What was measured:
# Format in all cases: in vivo
# [1] = test system: blackgrass (Alopecurus myosuroides); test: Test A postemergence; conditions: postemergence; for Blackgrass plant response rating: 125 g ai/ha, visual injury rating on 0 to 100 scale (0 no effect, 100 complete control), approx. 10 d; for Plant response rating, Blackgrass: 500 g ai/ha, 0 to 100 scale, 0 no effect, 100 complete control
# In short: (§1)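 In a loam soil and sand blend, planted seeds got a preemergence directed soil spray, and young plants at the one- to two-leaf stage, 2–10 cm high, got a postemergence application; ~10 d greenhouse hold; injury rated visually, 0 = none, 100 = complete control.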
# [2] = test system: ragweed (common ragweed, Ambrosia elatior); test: Test A postemergence; conditions: postemergence; for Ragweed plant response rating: 125 g ai/ha, visual injury rating on 0 to 100 scale (0 no effect, 100 complete control), approx. 10 d; for Plant response rating, Ragweed: 500 g ai/ha, 0 to 100 scale, 0 no effect, 100 complete control
# In short: as §1
# [3] = test system: barnyardgrass (Echinochloa crus-galli); test: Test A postemergence; conditions: postemergence; for Barnyardgrass plant response rating: 125 g ai/ha, visual injury rating on 0 to 100 scale (0 no effect, 100 complete control), approx. 10 d; for Plant response rating, Barnyardgrass: 500 g ai/ha, 0 to 100 scale, 0 no effect, 100 complete control
# In short: as §1
# Kochia (Kochia scoparia) [4] = test: Test A postemergence; conditions: postemergence; for Kochia plant response rating: 125 g ai/ha, visual injury rating on 0 to 100 scale (0 no effect, 100 complete control), approx. 10 d; for Plant response rating, Kochia: 500 g ai/ha, 0 to 100 scale, 0 no effect, 100 complete control
# In short: as §1
# [5] = test system: pigweed (Amaranthus retroflexus); test: Test A postemergence; conditions: postemergence; for Pigweed plant response rating: 125 g ai/ha, visual injury rating on 0 to 100 scale (0 no effect, 100 complete control), approx. 10 d; for Plant response rating, Pigweed: 500 g ai/ha, 0 to 100 scale, 0 no effect, 100 complete control
# In short: as §1
# [6] = test system: Galium (catchweed bedstraw, Galium aparine); test: Test A postemergence; conditions: postemergence; for Galium plant response rating: 125 g ai/ha, visual injury rating on 0 to 100 scale (0 no effect, 100 complete control), approx. 10 d; for Plant response rating, Galium: 500 g ai/ha, 0 to 100 scale, 0 no effect, 100 complete control
# In short: as §1
# [7] = test system: ryegrass, Italian (Italian ryegrass, Lolium multiflorum); test: Test A postemergence; conditions: postemergence; for Ryegrass, Italian plant response rating: 125 g ai/ha, visual injury rating on 0 to 100 scale (0 no effect, 100 complete control), approx. 10 d; for Plant response rating, Ryegrass, Italian: 500 g ai/ha, 0 to 100 scale, 0 no effect, 100 complete control
# In short: as §1
# [8] = test system: giant foxtail (Setaria faberii); test: Test A postemergence; conditions: postemergence; for Foxtail, Giant plant response rating: 125 g ai/ha, visual injury rating on 0 to 100 scale (0 no effect, 100 complete control), approx. 10 d; for Plant response rating, Foxtail, Giant: 500 g ai/ha, 0 to 100 scale, 0 no effect, 100 complete control
# In short: as §1
# [9] = test system: wheat (Triticum aestivum); test: Test A postemergence; conditions: postemergence; for Wheat plant response rating: 125 g ai/ha, visual injury rating on 0 to 100 scale (0 no effect, 100 complete control), approx. 10 d; for Plant response rating, Wheat: 500 g ai/ha, 0 to 100 scale, 0 no effect, 100 complete control
# In short: as §1
# corn (Zea mays) = test: Test A postemergence; conditions: postemergence; for Corn plant response rating: 125 g ai/ha, visual injury rating on 0 to 100 scale (0 no effect, 100 complete control), approx. 10 d; for Plant response rating, Corn: 500 g ai/ha, 0 to 100 scale, 0 no effect, 100 complete control
# In short: as §1
# [10] = test system: sedge, umbrella (small-flower umbrella sedge, Cyperus difformis); test: Test B flooded paddy test; conditions: Flood, 250 g ai/ha; 0 to 100 scale where 0 is no effect and 100 is complete control; 13 to 15 d
# In short: (§2)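 Evaluation by eye, against controls, occurred 13–15 d post-treatment in a greenhouse, using a 0 (no effect) to 100 (complete control) scale. Application was into the paddy water, 3 cm deep over the soil, on 2-leaf plants.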
# [11] = test system: barnyardgrass (Echinochloa crus-galli); test: Test B flooded paddy test; conditions: Flood, 250 g ai/ha; 0 to 100 scale where 0 is no effect and 100 is complete control; 13 to 15 d
# In short: as §2
# rice (Oryra sativa) = test: Test B flooded paddy test; conditions: Flood, 250 g ai/ha; 0 to 100 scale where 0 is no effect and 100 is complete control; 13 to 15 d
# In short: as §2
# [12] = test system: ducksalad (Heteranthera limosa); test: Test B flooded paddy test; conditions: Flood, 250 g ai/ha; 0 to 100 scale where 0 is no effect and 100 is complete control; 13 to 15 d
# In short: as §2
# [13] = test system: ragweed (common ragweed, Ambrosia elatior); test: Test A preemergence; conditions: for Plant response rating, Ragweed: 125 g ai/ha, preemergence, 0 to 100 scale (0 no effect, 100 complete control); for Ragweed plant response rating (0 to 100 scale, 0 is no effect, 100 is complete control): Preemergence, 500 g ai/ha, visual injury approx. 10 d
# In short: as §1
# [14] = test system: barnyardgrass (Echinochloa crus-galli); test: Test A preemergence; conditions: for Plant response rating, Barnyardgrass: 125 g ai/ha, preemergence, 0 to 100 scale (0 no effect, 100 complete control); for Barnyardgrass plant response rating (0 to 100 scale, 0 is no effect, 100 is complete control): Preemergence, 500 g ai/ha, visual injury approx. 10 d
# In short: as §1
# Kochia (Kochia scoparia) [15] = test: Test A preemergence; conditions: for Plant response rating, Kochia: 125 g ai/ha, preemergence, 0 to 100 scale (0 no effect, 100 complete control); for Kochia plant response rating (0 to 100 scale, 0 is no effect, 100 is complete control): Preemergence, 500 g ai/ha, visual injury approx. 10 d
# In short: as §1
# [16] = test system: pigweed (Amaranthus retroflexus); test: Test A preemergence; conditions: for Plant response rating, Pigweed: 125 g ai/ha, preemergence, 0 to 100 scale (0 no effect, 100 complete control); for Pigweed plant response rating (0 to 100 scale, 0 is no effect, 100 is complete control): Preemergence, 500 g ai/ha, visual injury approx. 10 d
# [17] = test system: ryegrass, Italian (Italian ryegrass, Lolium multiflorum); test: Test A preemergence; conditions: for Plant response rating, Ryegrass, Italian: 125 g ai/ha, preemergence, 0 to 100 scale (0 no effect, 100 complete control); for Ryegrass, Italian plant response rating (0 to 100 scale, 0 is no effect, 100 is complete control): Preemergence, 500 g ai/ha, visual injury approx. 10 d
# In short: as §1
# [18] = test system: giant foxtail (Setaria faberii); test: Test A preemergence; conditions: for Plant response rating, Foxtail, Giant: 125 g ai/ha, preemergence, 0 to 100 scale (0 no effect, 100 complete control); for Foxtail, Giant plant response rating (0 to 100 scale, 0 is no effect, 100 is complete control): Preemergence, 500 g ai/ha, visual injury approx. 10 d
# In short: as §1
Compound,Blackgrass plant response rating [1],"Plant response rating, Blackgrass [1]",Ragweed plant response rating [2],"Plant response rating, Ragweed [2]",Barnyardgrass plant response rating [3],"Plant response rating, Barnyardgrass [3]",Kochia plant response rating (Kochia (Kochia scoparia) [4]),"Plant response rating, Kochia (Kochia (Kochia scoparia) [4])",Pigweed plant response rating [5],"Plant response rating, Pigweed [5]",Galium plant response rating [6],"Plant response rating, Galium [6]","Ryegrass, Italian plant response rating [7]","Plant response rating, Ryegrass, Italian [7]","Foxtail, Giant plant response rating [8]","Plant response rating, Foxtail, Giant [8]",Wheat plant response rating [9],"Plant response rating, Wheat [9]",Corn plant response rating (corn (Zea mays)),"Plant response rating, Corn (corn (Zea mays))",other results
CN1CC(c2ccc3c(c2)OC(F)(F)O3)C(C(=O)Nc2ccccc2F)C1=O (stereo not drawn) [Compound 441],50,80,20,50,80,90,40,70,40,60,50,50,60,60,80,80,50,80,60,70,"Plant response rating, Sedge, Umbrella [10]: 0; Plant response rating, Barnyardgrass [11]: 70; Plant response rating, Rice (rice (Oryra sativa)): 0; Plant response rating, Ducksalad [12]: 90; Plant response rating, Ragweed [13]: 30; Ragweed plant response rating (0 to 100 scale, 0 is no effect, 100 is complete control) [13]: 80; Plant response rating, Barnyardgrass [14]: 90; Barnyardgrass plant response rating (0 to 100 scale, 0 is no effect, 100 is complete control) [14]: 90; Plant response rating, Kochia (Kochia (Kochia scoparia) [15]): 70; Kochia plant response rating (0 to 100 scale, 0 is no effect, 100 is complete control) (Kochia (Kochia scoparia) [15]): 80; Plant response rating, Pigweed [16]: 50; Pigweed plant response rating (0 to 100 scale, 0 is no effect, 100 is complete control) [16]: 70; Plant response rating, Ryegrass, Italian [17]: 70; Ryegrass, Italian plant response rating (0 to 100 scale, 0 is no effect, 100 is complete control) [17]: 80; Plant response rating, Foxtail, Giant [18]: 90; Foxtail, Giant plant response rating (0 to 100 scale, 0 is no effect, 100 is complete control) [18]: 90"
O=C1NCC(c2ccc(Br)cc2)C1C(=O)Nc1cccc(F)c1 (stereo not drawn) [Compound 449],0,20,0,0,30,80,20,40,0,20,0,50,0,20,30,80,0,0,0,0,"Plant response rating, Sedge, Umbrella [10]: 0; Plant response rating, Barnyardgrass [11]: 40; Plant response rating, Rice (rice (Oryra sativa)): 0; Plant response rating, Ducksalad [12]: 98; Plant response rating, Ragweed [13]: 0; Ragweed plant response rating (0 to 100 scale, 0 is no effect, 100 is complete control) [13]: 0; Plant response rating, Barnyardgrass [14]: 50; Barnyardgrass plant response rating (0 to 100 scale, 0 is no effect, 100 is complete control) [14]: 90; Plant response rating, Kochia (Kochia (Kochia scoparia) [15]): 20; Kochia plant response rating (0 to 100 scale, 0 is no effect, 100 is complete control) (Kochia (Kochia scoparia) [15]): 40; Plant response rating, Pigweed [16]: 0; Pigweed plant response rating (0 to 100 scale, 0 is no effect, 100 is complete control) [16]: 20; Plant response rating, Ryegrass, Italian [17]: 20; Ryegrass, Italian plant response rating (0 to 100 scale, 0 is no effect, 100 is complete control) [17]: 0; Plant response rating, Foxtail, Giant [18]: 80; Foxtail, Giant plant response rating (0 to 100 scale, 0 is no effect, 100 is complete control) [18]: 90"
